Assay results reported in a melting point compilation (Tetko et al.; mined from patent text by program, amines drawn as free bases though some values may be those of a salt).

Compound | melting point
COC(c1ccccc1)C(C)O (stereo not drawn) | 104 to 106 °C
C=C(C(=O)c1ccc(-n2ccnc2)nc1)c1ccc(F)cc1F | 115 to 116 °C
Cc1nc2ccccn2c1Cc1ccc(C(=O)O)cc1 | 217 °C
N#CNc1nnc(-c2ccc3occ(-c4cccc(OC(F)(F)F)c4)c3c2)o1 | 237 to 238 °C
CCCCc1nc2c(N)nc3cc(-c4ccc(C(C)(C)C)cc4)ccc3c2n1CC(C)C | 219 to 220 °C
c1cc2c3c(c1)[C@@H]1CCC[C@@H]1N3CCNC2 | 57 to 59 °C
Cc1noc(C(C)c2ccc(-c3ccccc3)c(F)c2)n1 (stereo not drawn) | 55 to 56 °C
O=C(N[C@H]1CC[C@@H](C(=O)Oc2ccc3c(c2)CCC3)CC1)OCc1ccccc1 | 68 to 69 °C
CS(=O)(=O)c1ccc(-c2cnn(-c3ccoc3)c(=O)c2-c2ccc(F)cc2)cc1 | 239 to 242 °C
O=C(O)Cc1ccc(Cn2nc(-c3ccccc3)c(Cc3cc4c(cc3Cl)OCO4)c2C(=O)O)cc1 | < 45 °C
O=C1CC(/C=C/c2ccccc2)=Nc2ccccc2N1Cc1ccccc1 | 150 to 151 °C
C[C@@]1(c2ccccc2)OC(c2ccccc2)=NC[C@H]1OC(=O)Nc1ccccc1 (racemic) | 180 °C
O=[N+]([O-])c1ccccc1N=Nc1ccccc1 | 139 to 141 °C
Cc1ccncc1-c1nc(-c2ccc(S(N)(=O)=O)cc2)cs1 | 219 °C
COc1ccc2c(n1)c(CC[N+](=O)[O-])c1n2CCCC1 | 96 to 97 °C
Cc1ccc(C=NO)cc1Cl | 66 to 68 °C
COc1ncc(Cl)cc1Br | 45 to 47.5 °C
O=C1CCn2nc(-c3ccc(F)cc3)c(-c3ccncc3)c2N1 | > 250 °C
CN(C(=S)NC(=O)c1ccccc1)c1ccc(-c2ncn(-c3ccc(OC(F)(F)F)cc3)n2)cc1 | 166 to 169 °C
COc1cc(OC)cc(N2CCN(C(=O)N(c3nc4ccccc4nc3OC)C(C)C)CC2)c1 | 110 to 112 °C
Fc1ccc(Br)c2ccsc12 | 47 to 48 °C
O=C1COc2ccc(Br)cc2C(=O)C1 | 110 to 112 °C
Cc1cc(SC(C)c2ccc3cn(-c4ccc(C(F)(F)F)cc4)nc3c2)ccc1OC(C)(C)C(=O)O (racemic) | 114 to 116 °C
C[C@H]1C(=O)C[C@@H]2C[C@H]1OO[C@]2(C)/C=C\c1ccc(C(F)(F)F)cc1C(F)(F)F | 124 °C
CNS(=O)(=O)c1ccc(-c2cccc(-c3nc(C(C)C)[nH]c3-c3cccc(C)n3)c2)cc1 | 96 to 100 °C
COc1ccc(Cn2c(NC3CCN(CCNc4ncccn4)CC3)nc3ccccc32)cc1 | 160 °C
OC1(c2ccccc2)CCN(CCCC2COc3ccccc3O2)CC1 (stereo not drawn) | 95 to 98 °C

Compound | melting point
CSc1nc(C)ccc1NC(=O)CCCCCSc1nc2ccccc2[nH]1 | 138 to 140 °C
COc1cc2c(cc1OC)-c1cc(OC)c(OC)cc1C2=Cc1ccnc2ccccc12 | 226 to 228 °C
CC(=O)/C=C/Sc1ccc2ccccc2c1 | 62 to 64 °C
Cc1cnc2c(C#N)cnn2c1 | 193 to 194 °C
COC(=O)COc1cc2ccccc2c2c1c(C(=O)C(N)=O)c(C)n2Cc1cccc(-c2ccc(F)cc2)c1 | 157 to 159 °C
CCC(OC(=O)C1CC1)c1ccc(Cl)c2nc3n(c12)CCCN3c1ncc(Cl)cc1Cl (stereo not drawn) | 154 to 155 °C
CCCC(O)C(C)C(=O)NCc1ccccc1 (stereo not drawn) | 114 to 115 °C
OC[C@H]1OC[C@@H](n2cnc3cc(Cl)c(Cl)cc32)C[C@@H]1O | 197 °C
Cc1cc(-c2nnc3c4ccccc4c(OCc4cscn4)nn23)no1 | 227 to 229 °C
O=C(Nc1ccc2[nH]ncc2c1)O[C@@H](c1cccc(I)c1)[C@@H]1CCCCN1 | 126 °C
NC(=O)c1cccnc1Nc1cccc([N+](=O)[O-])c1 | 240 to 241 °C
CCOc1nc(N2CCNCC2)nc2c1sc1nc(-c3ccc(C(O)CO)cc3)nc(C)c12 (stereo not drawn) | > 300 °C
CC(C#N)c1ccc(C(=O)c2ccc(Cl)s2)cc1 (stereo not drawn) | 90 °C
Clc1ccc(Nc2cncc(-n3cc4ccccc4n3)n2)cc1 | 249 to 252 °C
Cn1ncnc1COc1nc2c(cc1C(C)(C)C)nnn2-c1ccccc1F | 115 to 117 °C
CN(c1cc(OC(F)(F)F)cc2cc(C3=NCCS3)[nH]c12)S(=O)(=O)c1cccs1 | 179 to 180 °C
O=S(=O)(Cl)c1ccc2cc(Oc3c(Cl)cc(C(F)(F)F)cc3Cl)ccc2c1 | 140 °C
C[C@]1(COC(=O)N(c2ccc(Cl)cc2)c2ccc(Cl)cc2)Cn2cc([N+](=O)[O-])nc2O1 | 200 to 201 °C
CN(C)c1ccc(C2=CCC(C)(C)c3cc(C(O)C#Cc4ccc(C(=O)O)cc4)ccc32)cc1 (stereo not drawn) | 91 °C
CC(C)(C)n1nnc(-c2ccc(CCC(=O)O)cc2)n1 | 88 to 90 °C
Cc1ccc(C)n1N(C)c1ccc(Cl)nn1 | 93 to 94.5 °C
FC(F)(F)c1ccc(-n2nc(N3CCN(CC4CC4)CC3)c3ccccc32)cc1 | 98 to 100 °C
Cc1ccccc1COc1cccnc1NC(=S)Nc1ccccc1 | 150 to 151 °C
Cc1c(NC(=O)c2ccc(-c3ccc(F)cc3)cc2)ccc2cc(C(O)c3ccccc3)cnc12 (stereo not drawn) | 182 to 186 °C
CCCCn1nc(C)c(CO)c1Cc1ccc(-c2ccccc2-c2nnn[nH]2)cc1 | 120 to 126 °C
COC1(C(C)=O)CCC2C3CCC4=CC(=O)CCC4(C)C3CCC21C (stereo not drawn) | 196 to 197 °C
Fc1ccc(Nc2nc(Cl)nc(NN=Cc3ccc(OC(F)(F)F)cc3)n2)cc1C(F)(F)F | 109 to 111 °C

Results, then the molecule that gave them:

melting point | Compound
67 to 69 °C | CCOC(=O)c1cc(C=O)ccc1O
180 to 181 °C | NC(=O)CNC(=O)c1cccc(-c2ccc3c(c2)C(Oc2ccc(Cl)cc2Cl)CC3)c1 (stereo not drawn)
83.5 to 84.5 °C | CCCc1c(OCCCOc2cccc3c2CCCC3)ccc2c1OC(CCC(=O)O)(CCC(=O)OCC)CC2=O (stereo not drawn)
245 to 247 °C | CCOC(=O)c1[nH]c2cc(Cl)cc(Cl)c2c1NS(=O)(=O)c1ccccc1
146 to 148 °C | COC(=O)CCCCCC(c1ccccc1)c1c(C)c(O)c(C)c(C)c1OC(C)=O (stereo not drawn)
104 to 105 °C | CCOc1nn(-c2ccc(C(F)(F)F)cn2)cc1CCCOc1ccc(CCC(=O)O)c(OC(C)C)c1
164 to 167 °C | CCOC(=O)c1cc(O)nn1-c1ncc(Cl)cc1Cl
215 to 217 °C | COc1cc(OC)c2c(=O)[nH]c(-c3ccc4[nH]c(CCN5CCCC5)cc4c3)nc2c1
209 to 210 °C | COc1ccc(Nc2ccc(-c3ccnc(Nc4cc(OC)c(OC)c(OC)c4)n3)cn2)cc1
203 to 205 °C | CCOc1cc(N)c(Cl)cc1C(=O)NC1CCN(CC2CCN(C(=O)N(C)C)CC2)CC1
126 °C | CCCc1c(CSc2ncccc2O)ccc(C(C)=O)c1O
150 to 152 °C | CC(=O)C=Cc1cn(CC(=O)N(C)CCc2ccccc2)c2ccc(OCc3ccccc3)cc12
144 °C | Cc1ccc2ccc(N3C(=O)c4ccccc4C3OC(=O)CCCC(C)C)nc2n1 (stereo not drawn)
142 to 143 °C | CN(CCOc1ccc(CC(Cl)C(=O)O)cc1)c1nc2ccccc2o1 (stereo not drawn)
202 °C | NC(=O)c1cccc(NC(=O)Cc2cccc(Br)c2)c1
142 to 143 °C | C=CCOc1ccc(OC(C)=O)c2ccc(=O)[nH]c12
44 to 46 °C | CCCCCc1c(C=O)sc2cc(OC)ccc12
252 to 255 °C | COc1cc([N+](=O)[O-])c(N)cc1C(=O)O
148 to 149 °C | O=C(c1cccc(Cl)c1)C1C(=O)c2ccccc2C1=O
200 °C | CCNC(=O)c1ccc(N2CCN(Cc3cc4c(c(OCC)c3)OC(C)C(=O)N4)CC2)c(C)c1 (stereo not drawn)
81 to 83 °C | Cc1ccc2ccc3ccccc3c(=O)c2c1
137 to 138 °C | CC(C)OCC1(C(F)(F)F)c2cc(Cl)ccc2Nc2ncc(Cl)cc21 (stereo not drawn)

melting point | Compound
216 to 221 °C | CC(OC(N)=O)c1cc2c3ccccc3n(C)c(=O)n2n1 (stereo not drawn)
52 to 62 °C | CCOC(=O)C(=O)N(O)Cc1ccc2c(c1)OCc1ccccc1C2=O
133 to 135 °C | CCCc1nc2cnc3ccccc3c2n1CCCCNS(C)(=O)=O
127 to 129 °C | Cc1ccccc1-c1ncc(NC(=O)OCc2ccccc2)c(=O)n1CC(=O)NC(Cc1ccccc1)C(=O)C(F)(F)F (stereo not drawn)
143 to 150 °C | CCOC(=O)c1cn(-c2cc(NC(=O)OC(C)(C)C)c(F)cc2F)c2c(Cl)c(N)c(F)cc2c1=O
228 to 233 °C | Cc1cn2nc(-c3ccccc3)nc2cc1C(=O)O
234 to 237 °C | CC1CN(c2cc3c(cc2F)C(=O)c2nc4ccccc4c(=O)n2-3)CCN1C(=O)OC(C)(C)C (stereo not drawn)
229 to 231 °C | CCc1cc(OCc2ccc3oc(-c4ccccc4C(=O)O)nc3c2)c2c(n1)CCCC2
141 °C | CC(=O)OC1CSC(Oc2ccc(Cl)nc2)C(OC(C)=O)C1OC(C)=O (stereo not drawn)
214 to 217 °C | COc1cc2ncc(C#N)c(Nc3cccc(Cl)c3)c2cc1OC
89 to 92 °C | CCOC(=O)Oc1cc2occ(C(=O)Cl)c(=O)c2cc1OC(=O)OCC
127 °C | CCC(=O)Oc1cc(OC)cc(OC)c1C(=O)C=Cc1cccs1
172 to 174 °C | CCC(CC)NC(=O)C(C)(C)COc1cccc2nc(C)c(C(=O)O)c(N)c12
205 to 218 °C | COc1ccc(NS(=O)(=O)c2ccc(N3CCC(NCC(O)c4ccc(O)c(NS(C)(=O)=O)c4)CC3)cc2)cc1OC (stereo not drawn)
192 to 193 °C | COC(=O)c1ccc(Cl)c(-n2nn[nH]c2=O)c1Cl
114 to 115 °C | CCOc1cc(Oc2ncc(Cl)cn2)ccc1[N+](=O)[O-]
39 to 41 °C | CCCc1c(OC(C)=O)ccc2oc(Cc3ccc(OC)cc3)c(C)c12
108 to 110 °C | CCc1cccc(CC)c1NC(=S)NC(C)C
99 to 101 °C | CCOC=C(C#N)C(=O)c1cc(F)c(F)c(F)c1F
69 to 70 °C | CCOC(=O)c1c(C(F)(F)F)nc(C(F)(F)Cl)c(C(=O)OC)c1N
201 to 202 °C | COc1cccc2c(=O)c3ccc(Cl)cc3oc12
170 to 171 °C | CCOC(=O)c1oc(SC)c2c1CCc1sc(-c3ccccc3)nc1-2
